Test results reported in ChEMBL document CHEMBL1201862, “PubChem BioAssay data set” (2004).
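Following 48 hours of exposure in 96-well plates, responses at five concentrations were used to interpolate endpoints linearly. GI50: concentration for 50% inhibition of growth.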 The source made the active and inactive calls. No stated cut-off is given here; in the data, active = GI50 up to about 1.1 µM and inactive = higher.

Tests used:
Assay in all cases: DTP human tumour cell line panel, 48 h
BT-549 = system: BT-549
Hs-578T = system: Hs-578T
T47D = system: T47D
U-251 = system: U-251
HT-29 = system: HT-29
Malme-3M = system: Malme-3M
CAKI-1 = system: CAKI-1
OVCAR-8 = system: OVCAR-8
SN12C = system: SN12C
ACHN = system: ACHN
HCT-116 = system: HCT-116
A549 = system: A549
HCT-15 = system: HCT-15
COLO 205 = system: COLO 205
SF-539 = system: SF-539
MDA-MB-231 = system: MDA-MB-231
IGROV-1 = system: IGROV-1
UO-31 = system: UO-31
MCF7 = system: MCF7
HCC 2998 = system: HCC 2998

SMILES	GI50 (BT-549)	GI50 (Hs-578T)	GI50 (T47D)	GI50 (U-251)	GI50 (HT-29)	GI50 (Malme-3M)	GI50 (CAKI-1)	GI50 (OVCAR-8)	GI50 (SN12C)	GI50 (ACHN)	GI50 (HCT-116)	GI50 (A549)	GI50 (HCT-15) [µM]	GI50 (COLO 205)	GI50 (SF-539)	GI50 (MDA-MB-231)	GI50 (IGROV-1)	GI50 (UO-31)	GI50 (MCF7)	GI50 (HCC 2998)
COC(=O)C(Cc1c(-c2[nH]c3ccccc3c2CC(NC(C)=O)C(=O)OC)[nH]c2ccccc12)NC(C)=O (stereo not given)	> 100 µM (inactive)	> 100 µM (inactive)	> 100 µM (inactive)	> 100 µM (inactive)	> 100 µM (inactive)	> 100 µM (inactive)	> 100 µM (inactive)	> 100 µM (inactive)	> 100 µM (inactive)	> 100 µM (inactive)	> 100 µM (inactive)	> 100 µM (inactive)	> 100	> 100 µM (inactive)	> 100 µM (inactive)	> 100 µM (inactive)	> 100 µM (inactive)	> 100 µM (inactive)	–	–
CCOC(=O)c1nc2ccccc2nc1Oc1ccc(F)cc1	> 100 µM (inactive)	39.3 µM (inactive)	> 100 µM (inactive)	69.2 µM (inactive)	> 100 µM (inactive)	–	–	> 100 µM (inactive)	> 100 µM (inactive)	84.3 µM (inactive)	> 100 µM (inactive)	> 100 µM (inactive)	> 100	> 100 µM (inactive)	> 100 µM (inactive)	> 100 µM (inactive)	> 100 µM (inactive)	> 100 µM (inactive)	> 100 µM (inactive)	–
O=C(O)C(Cc1cc(I)c(O)c(I)c1)C1CCCCC1 (stereo not given)	34.5 µM (inactive)	27.9 µM (inactive)	29.9 µM (inactive)	22.3 µM (inactive)	30.8 µM (inactive)	37.7 µM (inactive)	30.6 µM (inactive)	38.6 µM (inactive)	32.2 µM (inactive)	30.3 µM (inactive)	26.5 µM (inactive)	31.9 µM (inactive)	31.7	–	–	21.8 µM (inactive)	27.5 µM (inactive)	45.7 µM (inactive)	–	27.2 µM (inactive)
O=c1[nH]nc(Cc2ccccc2)n1/N=C/c1ccco1	> 100 µM (inactive)	10 µM (inactive)	> 100 µM (inactive)	> 100 µM (inactive)	> 100 µM (inactive)	> 100 µM (inactive)	> 100 µM (inactive)	> 100 µM (inactive)	> 100 µM (inactive)	> 100 µM (inactive)	> 100 µM (inactive)	> 100 µM (inactive)	> 100	> 100 µM (inactive)	> 100 µM (inactive)	> 100 µM (inactive)	–	> 100 µM (inactive)	48.1 µM (inactive)	> 100 µM (inactive)
CC1(C)OC[C@@]2([C@@H]3CC[C@@H](C3)C2(C)C)N1O	> 100 µM (inactive)	> 100 µM (inactive)	> 100 µM (inactive)	88.9 µM (inactive)	> 100 µM (inactive)	28.8 µM (inactive)	> 100 µM (inactive)	> 100 µM (inactive)	> 100 µM (inactive)	> 100 µM (inactive)	> 100 µM (inactive)	> 100 µM (inactive)	> 100	> 100 µM (inactive)	> 100 µM (inactive)	> 100 µM (inactive)	> 100 µM (inactive)	–	> 100 µM (inactive)	–
CSc1c(C#N)c(S)n(-c2ccc(Cl)cc2)c(=O)c1C#N	> 100 µM (inactive)	> 100 µM (inactive)	47.5 µM (inactive)	> 100 µM (inactive)	99.3 µM (inactive)	> 100 µM (inactive)	> 100 µM (inactive)	74.1 µM (inactive)	> 100 µM (inactive)	–	45.4 µM (inactive)	> 100 µM (inactive)	74.1	> 100 µM (inactive)	> 100 µM (inactive)	> 100 µM (inactive)	80.7 µM (inactive)	27.9 µM (inactive)	> 100 µM (inactive)	> 100 µM (inactive)
O=c1cc(-c2ccccc2)oc2c(-c3cc(Cl)cc4c(=O)cc(-c5ccccc5)oc34)cc(Cl)cc12	29.6 µM (inactive)	15.3 µM (inactive)	16.4 µM (inactive)	19 µM (inactive)	34 µM (inactive)	27 µM (inactive)	–	28.9 µM (inactive)	32.8 µM (inactive)	16.2 µM (inactive)	–	29.1 µM (inactive)	29.5	31.8 µM (inactive)	17.8 µM (inactive)	32.7 µM (inactive)	22.5 µM (inactive)	16.8 µM (inactive)	24.5 µM (inactive)	47.9 µM (inactive)
CSc1ccsc1-c1sc(-c2cc(SC)c(-c3sc(-c4cc(SC)c(-c5sccc5SC)s4)cc3SC)s2)cc1SC	64.3 µM (inactive)	> 100 µM (inactive)	28.2 µM (inactive)	67.3 µM (inactive)	93.5 µM (inactive)	29.4 µM (inactive)	17.2 µM (inactive)	> 100 µM (inactive)	42.3 µM (inactive)	32.9 µM (inactive)	75.9 µM (inactive)	90.8 µM (inactive)	> 100	33.4 µM (inactive)	> 100 µM (inactive)	> 100 µM (inactive)	> 100 µM (inactive)	–	57.1 µM (inactive)	> 100 µM (inactive)
Nc1nc(N)c(N=Nc2ccc([As](=O)(O)O)c(O)c2)c(N)n1	32.4 µM (inactive)	13 µM (inactive)	> 25.2 µM (inactive)	22.9 µM (inactive)	3.75 µM (inactive)	79.1 µM (inactive)	58.3 µM (inactive)	13.7 µM (inactive)	12.1 µM (inactive)	49 µM (inactive)	7.24 µM (inactive)	> 82.4 µM (inactive)	37.6	22 µM (inactive)	17.1 µM (inactive)	> 54.2 µM (inactive)	4.61 µM (inactive)	> 88.9 µM (inactive)	3.75 µM (inactive)	–
CNc1ccc(OC)cc1S(=O)(=O)c1ccccc1[N+](=O)[O-]	75.2 µM (inactive)	> 100 µM (inactive)	49.8 µM (inactive)	> 100 µM (inactive)	> 100 µM (inactive)	82.8 µM (inactive)	–	> 100 µM (inactive)	> 100 µM (inactive)	> 100 µM (inactive)	> 100 µM (inactive)	98.2 µM (inactive)	> 100	> 100 µM (inactive)	> 100 µM (inactive)	> 100 µM (inactive)	> 100 µM (inactive)	> 100 µM (inactive)	> 100 µM (inactive)	> 100 µM (inactive)
COc1ccc2oc(=O)c(-c3csc(-c4ccccc4)n3)cc2c1	21.4 µM (inactive)	37.8 µM (inactive)	> 100 µM (inactive)	21.9 µM (inactive)	55.1 µM (inactive)	–	> 100 µM (inactive)	–	–	32 µM (inactive)	35.6 µM (inactive)	64.7 µM (inactive)	> 100	> 100 µM (inactive)	16.9 µM (inactive)	43.4 µM (inactive)	32.6 µM (inactive)	24 µM (inactive)	94.6 µM (inactive)	95.7 µM (inactive)
Cc1nn(-c2ccccc2)c2c1C(c1cc3ccccc3nc1Cl)NC(=O)N2 (stereo not given)	16.6 µM (inactive)	27.5 µM (inactive)	59.2 µM (inactive)	17.1 µM (inactive)	18.7 µM (inactive)	20.8 µM (inactive)	34.4 µM (inactive)	19.3 µM (inactive)	24.4 µM (inactive)	17.7 µM (inactive)	23.8 µM (inactive)	56.2 µM (inactive)	19.8	19.5 µM (inactive)	19.9 µM (inactive)	20.6 µM (inactive)	11 µM (inactive)	14.3 µM (inactive)	25.3 µM (inactive)	–
CCOC(=O)c1sc2nc(SC)nc3c2c1N=CN3c1ccc(Br)cc1	> 100 µM (inactive)	23.1 µM (inactive)	> 100 µM (inactive)	76.2 µM (inactive)	> 100 µM (inactive)	> 100 µM (inactive)	98.9 µM (inactive)	> 100 µM (inactive)	> 100 µM (inactive)	> 100 µM (inactive)	> 100 µM (inactive)	> 100 µM (inactive)	> 100	> 100 µM (inactive)	–	> 100 µM (inactive)	> 100 µM (inactive)	> 100 µM (inactive)	> 100 µM (inactive)	> 100 µM (inactive)
CCOC(=O)c1nnsc1NN=C(C)C	> 100 µM (inactive)	> 100 µM (inactive)	> 100 µM (inactive)	> 100 µM (inactive)	> 100 µM (inactive)	> 100 µM (inactive)	> 100 µM (inactive)	> 100 µM (inactive)	> 100 µM (inactive)	–	> 100 µM (inactive)	> 100 µM (inactive)	> 100	> 100 µM (inactive)	> 100 µM (inactive)	> 100 µM (inactive)	> 100 µM (inactive)	> 100 µM (inactive)	–	> 100 µM (inactive)
CC(=O)c1c(C)cc2cccc(OC3OC(CO)C(O)C(O)C3O)c2c1O.CC1OC(O)C(O)C(O)C1O (stereo not given)	> 100 µM (inactive)	> 100 µM (inactive)	> 100 µM (inactive)	> 100 µM (inactive)	> 100 µM (inactive)	> 100 µM (inactive)	> 100 µM (inactive)	> 100 µM (inactive)	> 100 µM (inactive)	> 100 µM (inactive)	> 100 µM (inactive)	> 100 µM (inactive)	> 100	> 100 µM (inactive)	> 100 µM (inactive)	> 100 µM (inactive)	> 100 µM (inactive)	–	> 100 µM (inactive)	> 100 µM (inactive)
